Experimental data: patent publication US9382188B2, “Aromatic ring compound” (TAKEDA PHARMACEUTICAL COMPANY LIMITED, priority 2012, dated 2016)

Target: T1, human GPR40 (Homo sapiens, UniProt O14842)
T1 construct: expressed in transfected cells
Test: Evaluation of human GPR40 agonist activity with increase in intracellular Ca2+ concentration as an index (FLIPR Tetra)
Format: cell-based
Details: test compound 1 μM; CHO(dhfr-) cells stably expressing human GPR40; 100% = activity of 1 μM WO2009/048527 Example 99.2, 0% = DMSO
Method: Evaluation of human GPR40 agonist activity with increase in intracellular Ca^2+ concentration as an index
CHO(dhfr-) cells that stably expressed human GPR40 were suspended in MEMα (Nikken Bio Medical Laboratory) containing 10% dialysis serum (GEMINI BIO-PRODUCTS), 10 mM HEPES (Invitrogen), 100 U/mL penicillin, 100 μg/mL streptomycin (Invitrogen), and plated on a 384 well black/clear cell culture plate at 10,000 cells/well. After culture overnight in a CO2 incubator at 37° C., the culture supernatant was removed, and a loading buffer [dye attached to Calcium 5 Assay Kit (Molecular Devices) was dissolved in an assay buffer (20 mM HEPES, 0.2% fatty acid-free BSA (Sigma-Aldrich), 2.5 mM probenecid (DOJINDO)-containing HBSS (Invitrogen)) added with 0.025% Cremophor EL (DOJINDO)] was added at 37.5 μL/well. After incubation in a CO2 incubator at 37° C. for 1 hr, the cells were stood at room temperature for 15 min, an assay buffer containing the test compound at a final concentration of 1 μM was added at 12.5 μL/well in FLIPR Tetra (Molecular Devices), and the fluorescence amount was successively measured. Human GPR40 agonist activity calculated using an increase in the intracellular Ca^2+ concentration as an index, wherein the activity of 1 μM of the compound described in WO 2009/048527 (WO2009/048527 Example 99.2) was 100%, and the activity when DMSO was added instead of the test compound was 0%.

T1 sequence (O14842 whole entry): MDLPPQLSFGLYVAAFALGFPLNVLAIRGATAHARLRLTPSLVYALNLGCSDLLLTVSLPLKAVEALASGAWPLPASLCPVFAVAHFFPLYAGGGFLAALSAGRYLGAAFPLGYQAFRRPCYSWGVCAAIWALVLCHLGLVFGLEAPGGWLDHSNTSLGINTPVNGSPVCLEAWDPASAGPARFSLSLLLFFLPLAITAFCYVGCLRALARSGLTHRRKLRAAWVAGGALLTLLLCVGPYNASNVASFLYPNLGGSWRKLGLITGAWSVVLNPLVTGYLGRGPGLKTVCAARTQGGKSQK

Row | Structure (SMILES) | activation at 1 µM [%] | Human GPR40 agonist activity (increase in intracellular Ca2+ concentration) [%]
1 | COc1ccc(F)c(-c2ccc(N(C)Cc3cccc(C(CC(=O)O)C4CC4)c3)cc2CC(C)(C)C)c1 (stereo not shown) [Example 9, 3-cyclopropyl-3-(3-(((2-(2,2-dimethylpropyl)-2′-fluoro-5′-methoxybiphenyl-4-yl)(methyl)amino)methyl)phenyl)propanoic acid] | 103 | 
2 | COc1ccc(F)c(-c2ccc(OCc3cccc(C(C#CC4CC4)CC(=O)O)c3)cc2CC(C)(C)C)c1 (stereo not shown) [Example 77, 5-cyclopropyl-3-(3-(((2′-fluoro-5′-methoxy-2-neopentyl-[1,1′-biphenyl]-4-yl)oxy)methyl)phenyl)pent-4-ynoic acid] | 101 | 
3 | COc1ccc(F)c(-c2ccc(OCc3cccc(C(CC(=O)O)C4CC4)c3)cc2CC2(C#N)CCCC2)c1 (stereo not shown) [Example 41, 3-(3-(((2-((1-cyanocyclopentyl)methyl)-2′-fluoro-5′-methoxybiphenyl-4-yl)oxy)methyl)phenyl)-3-cyclopropylpropanoic acid] | 101 | 
4 | C=CCCC(CC(=O)O)c1cccc(COc2ccc(-c3cc(OC)ccc3F)c(CC(C)(C)C)c2)c1 (stereo not shown) [Example 43, 3-(3-(((2-(2,2-dimethylpropyl)-2′-fluoro-5′-methoxybiphenyl-4-yl)oxy)methyl)phenyl)hept-6-enoic acid] | 107 | 
5 | COc1ccc(F)c(-c2ccc(OCc3cccc(C(CC(=O)O)C4CC4C#N)c3)cc2CC(C)(C)C)c1 (stereo not shown) [Example 90, 3-(2-cyanocyclopropyl)-3-(3-(((2′-fluoro-5′-methoxy-2-neopentyl-[1,1′-biphenyl]-4-yl)oxy)methyl)phenyl)propanoic acid] |  | 107
6 | CC(C)(C)Cc1cc(OCc2cccc(C(CC(=O)O)C3CC3)c2)cnc1-c1cccc(C(F)(F)F)c1 (stereo not shown) [Example 52, 3-cyclopropyl-3-(3-(((5-(2,2-dimethylpropyl)-6-(3-(trifluoromethyl)phenyl)pyridin-3-yl)oxy)methyl)phenyl)propanoic acid] | 14 | 
7 | COc1ccc(F)c(-c2ccc(OCc3cccc(C(CC(=O)O)C4CC4)c3)cc2C(F)C2(C#N)CCCC2)c1 (stereo not shown) [Example 101, 3-(3-(((2-((1-cyanocyclopentyl)(fluoro)methyl)-2′-fluoro-5′-methoxybiphenyl-4-yl)oxy)methyl)phenyl)-3-cyclopropylpropanoic acid] | 106 | 
8 | COc1ccc(F)c(-c2ccc(OCc3cccc(C(CC(=O)O)C4CC4C#N)c3)cc2CC(C)(C)C)c1 (stereo not shown) [Example 91, 3-(2-cyanocyclopropyl)-3-(3-(((2′-fluoro-5′-methoxy-2-neopentyl-[1,1′-biphenyl]-4-yl)oxy)methyl)phenyl)propanoic acid] |  | 97
9 | COc1ccc(F)c(-c2ccc(OCc3cccc(C(CC(=O)O)C4CCC4)c3)cc2CC(C)(C)C)c1 (stereo not shown) [Example 42, 3-cyclobutyl-3-(3-(((2-(2,2-dimethylpropyl)-2′-fluoro-5′-methoxybiphenyl-4-yl)oxy)methyl)phenyl)propanoic acid] | 104 | 
10 | COc1ccc(F)c(-c2ccc(NCc3cccc(C(CC(=O)O)C4CC4)c3)cc2CC(C)(C)C)c1 (stereo not shown) [Example 8, 3-cyclopropyl-3-(3-(((2-(2,2-dimethylpropyl)-2′-fluoro-5′-methoxybiphenyl-4-yl)amino)methyl)phenyl)propanoic acid] | 98 | 

More lines, now with the values ahead:

Row | activation at 1 µM [%] | Human GPR40 agonist activity (increase in intracellular Ca2+ concentration) [%] | Structure (SMILES)
11 | 96 |  | COc1ccc(F)c(-c2ccc(OCc3cccc(C(CC(=O)O)C4CC4)c3)cc2C(C)C(C)(C)C)c1 (stereo not shown) [Example 98, 3-cyclopropyl-3-(3-(((2-(3,3-dimethylbutan-2-yl)-2′-fluoro-5′-methoxybiphenyl-4-yl)oxy)methyl)phenyl)propanoic acid]
12 | -8 |  | CC(C)(C)Cc1cc(OCc2cccc(C(CC(=O)O)C3CC3)c2)cnc1-c1cc(OCC(F)(F)F)ccc1F (stereo not shown) [Example 70, 3-cyclopropyl-3-(3-(((5-(2,2-dimethylpropyl)-6-(2-fluoro-5-(2,2,2-trifluoroethoxy)phenyl)pyridin-3-yl)oxy)methyl)phenyl)propanoic acid]
13 | 94 |  | CCC(CC(=O)O)c1cccc(COc2ccc(-c3cc(OC)ccc3F)c(CC(C)(C)C)c2)c1 (stereo not shown) [Example 80, 3-(3-(((2′-fluoro-5′-methoxy-2-neopentyl-[1,1′-biphenyl]-4-yl)oxy)methyl)phenyl)pentanoic acid]
14 | 90 |  | COc1ccc(F)c(-c2ccc(OCc3cccc(C(CC(=O)O)C(C)(C)C#N)c3)cc2CC(C)(C)C)c1 (stereo not shown) [Example 84, 4-cyano-3-(3-(((2′-fluoro-5′-methoxy-2-neopentyl-[1,1′-biphenyl]-4-yl)oxy)methyl)phenyl)-4-methylpentanoic acid]
15 | 98 |  | COc1ccc(F)c(-c2ccc(OCc3cccc(C(CC(=O)O)C4CC4)c3)cc2-c2ccc(C(F)(F)F)cc2)c1 (stereo not shown) [Example 17, 3-cyclopropyl-3-(3-(((2-fluoro-5-methoxy-4″-(trifluoromethyl)-1,1′:2′,1″-terphenyl-4′-yl)oxy)methyl)phenyl)propanoic acid]
16 | 126 |  | CCC(C)(C)C(F)c1cc(OCc2cccc(C(CC(=O)O)C3CC3)c2)ccc1-c1cc(OC)ccc1F (stereo not shown) [Example 107, 3-cyclopropyl-3-(3-(((2′-fluoro-2-(1-fluoro-2,2-dimethylbutyl)-5′-methoxybiphenyl-4-yl)oxy)methyl)phenyl)propanoic acid]
17 | 118 |  | COc1ccc(F)c(-c2ccc(OCc3cccc(C(CC(=O)O)C4CC4)c3)cc2CC2(C)CCCC2)c1 (stereo not shown) [Example 97, 3-cyclopropyl-3-(3-(((2′-fluoro-5′-methoxy-2-((1-methylcyclopentyl)methyl)biphenyl-4-yl)oxy)methyl)phenyl)propanoic acid]
18 | 94 |  | CCC(C)(C)C(OCCOC)c1cc(OCc2cccc(C(CC(=O)O)C3CC3)c2)ccc1-c1cc(OC)ccc1F (stereo not shown) [Example 110, 3-cyclopropyl-3-(3-(((2′-fluoro-5′-methoxy-2-(1-(2-methoxyethoxy)-2,2-dimethylbutyl)biphenyl-4-yl)oxy)methyl)phenyl)propanoic acid]
19 | 114 |  | COc1ccc(F)c(-c2ccc(OCc3cccc(C(CC(=O)O)C4CCCCC4)c3)cc2CC(C)(C)C)c1 (stereo not shown) [Example 40, 3-cyclohexyl-3-(3-(((2-(2,2-dimethylpropyl)-2′-fluoro-5′-methoxybiphenyl-4-yl)oxy)methyl)phenyl)propanoic acid]
20 | 95 |  | COc1ccc(F)c(-c2ccc(OCc3cccc(C(CC(=O)O)C(C)(F)F)c3)cc2CC(C)(C)C)c1 (stereo not shown) [Example 86, 4,4-difluoro-3-(3-(((2′-fluoro-5′-methoxy-2-neopentyl-[1,1′-biphenyl]-4-yl)oxy)methyl)phenyl)pentanoic acid]
21 | 129 |  | CCC(C)(C)C(O)c1cc(OCc2cccc(C(CC(=O)O)C3CC3)c2)ccc1-c1cc(OC)ccc1F (stereo not shown) [Example 108, 3-cyclopropyl-3-(3-(((2′-fluoro-2-(1-hydroxy-2,2-dimethylbutyl)-5′-methoxybiphenyl-4-yl)oxy)methyl)phenyl)propanoic acid]
22 | 105 |  | CCC1(Cc2cc(OCc3cccc(C(CC(=O)O)C4CC4)c3)ccc2-c2cc(OC)ccc2F)CCCC1 (stereo not shown) [Example 100, 3-cyclopropyl-3-(3-(((2-((1-ethylcyclopentyl)methyl)-2′-fluoro-5′-methoxybiphenyl-4-yl)oxy)methyl)phenyl)propanoic acid]
